# Key:
# [1] = tested on: HEp-2 human epidermoid carcinoma cells; test: Cell proliferation assay (cell counts), HEp-2; assay type: cell-based; conditions: Table 5, 72 hours
# Description: (§1) Tolytoxin and the other new scytophycin compounds are potent anticancer and antifungal agents. The cytotoxicity of tolytoxin and other new scytophycin compounds was determined using a cell proliferation assay, which tested the effect of the compounds on increases in cell numbers.
# (§2) Cell lines were grown in plastic dishes (Falcon) in Eagle's basal medium supplemented with 5% newborn calf serum (KB), Fisher's medium supplemented with 10% horse serum (L1210), Dulbecco's modified Eagle's medium supplemented with 5% heat-inactivated fetal calf serum (LoVo), minimal essential medium supplemented with 2% heat-inactivated chicken serum (HEp-2), RPMI-1640 supplemented with 10% heat-inactivated fetal calf serum (T-47D, COLO-201) or 20% heat-inactivated fetal calf serum (HL-60, KATO-III), or McCoy's 5A supplemented with 10% heat-inactivated fetal calf serum (HBL-100). All cell culture media were supplemented with 50 μg/ml gentamycin sulfate. The cultures were incubated at 37° C. in a humidified atmosphere containing 5% carbon dioxide.
# (§3) Cultures were exposed to graded concentrations of tolytoxin and reincubated for 72 hours in the presence of tolytoxin. […] Cell numbers were determined by hemacytometer counts. The IC50 for each cell line was determined by plotting the logarithm of the tolytoxin concentration versus growth (cell number as a percentage of the control) of the treated cells.
# [2] = tested on: Candida albicans A26; test: Antifungal agar dilution; assay type: cell-based; conditions: Candida albicans, A26, 48 h
# Description: (§4) The new scytophycins are also useful as antifungal agents. Antimicrobial activity was determined by the agar dilution method. Tolytoxin was dissolved in 95% ethanol for addition to cooled, molten agar. Nystatin was solubilized in DMSO and diluted in distilled water. Appropriate solvent controls were also prepared. Fungal cultures were grown on Saboraud dextrose agar. Assay plates were incubated for 48 hours post-inoculation. Yeasts and filamentous fungi were incubated at 25° C.
# (§5) Activity was determined using the method described above for tolytoxin.
# [3] = tested on: Phytophthora nicotianae H729; test: Antifungal agar dilution; assay type: cell-based; conditions: Phytophthora nicotianae, 48 h
# Description: as §4, §5
# [4] = tested on: Thielaviopsis paradoxa 1215; test: Antifungal agar dilution; assay type: cell-based; conditions: Thielaviopsis paradoxa, 1215, 48 h
# Description: as §4, §5
# [5] = tested on: Sclerotium rofsii 2133; test: Antifungal agar dilution; assay type: cell-based; conditions: 48 h
# Description: as §4, §5
# [6] = tested on: Saccharomyces cerevisae; test: Antifungal agar dilution; assay type: cell-based; conditions: Saccharomyces, 48 h
# Description: as §4, §5
# [7] = tested on: Aspergillus oryzae; test: Antifungal agar dilution; assay type: cell-based; conditions: 48 h
# Description: as §4
# [8] = tested on: Colletotrichum coccodes 1809; test: Antifungal agar dilution; assay type: cell-based; conditions: Colletotrichum coccodes, 1809, 48 h
# Description: as §4
# [9] = tested on: Calonectria critalarae 1809; test: Antifungal agar dilution; assay type: cell-based; conditions: 48 h
# Description: as §4
# [10] = tested on: Bipolaris incurvata 2118; test: Antifungal agar dilution; assay type: cell-based; conditions: Bipolaris incurvata, 2118, 48 h
# Description: as §4
# [11] = tested on: Phyllosticta capitalensis 689-5; test: Antifungal agar dilution; assay type: cell-based; conditions: Phyllosticta capitalensis, 6895, 48 h
# Description: as §4
# [12] = tested on: Rhizoctonia solani 1165; test: Antifungal agar dilution; assay type: cell-based; conditions: Rhizoctonia solani, 1165, 48 h
# Description: as §4
# [13] = tested on: Trichophyton mentagrophytes A23; test: Antifungal agar dilution; assay type: cell-based; conditions: Trichophyton mentagrophytes, A23, 48 h
# Description: as §4
# [14] = tested on: Alternaria alternata 1715; test: Antifungal agar dilution; assay type: cell-based; conditions: Alternaria alternata, 1715, 48 h
# Description: as §4
# [15] = tested on: Penicillium notatum; test: Antifungal agar dilution; assay type: cell-based; conditions: Penicillium chrysogenum, 48 h
# Description: as §4
# [16] = Toxicity in mice, intraperitoneal; conditions: mouse, in vivo, ip, Swiss Webster mice
# Description: In view of the cytotoxic effects observed with the new scytophycins, an experiment was performed to determine the toxicity level in an animal model. Various doses of tolytoxin were administered to Swiss Webster mice by the intraperitoneal route.
# [17] = tested on: SKVLB (multi-drug resistant subline of SKOV3); test: cells; assay type: cell-based, Human
# [18] = tested on: Human ovarian carcinoma cells (SKOV3); test: cells; assay type: cell-based; conditions: SK-OV-3, 48 h, read-out: IC50 SKOV3
# Description: Human ovarian carcinoma cells (SKOV3) and a subline made multi-drug resistant by slowly increasing vinblastine in the culture medium over the course of many passages (SKVLB) were grown in Earle's basal medium (BME) containing 10% fetal calf serum. The SKVLB cells were maintained in the presence of 1 µg/mL vinblastine. The multi-drug resistant cell line is resistant to adriamycin, vinblastine, actinomycin D, and colchicine.
# Cell proliferation was estimated by measurement of protein content of the cultured cells, as described by Skehan et al. (1990). Cells were plated into 24-well plates at approximately 10% confluency in BME and were allowed to attach and recover for at least 24 hours. The cells were then treated with the scytophycins or appropriate control for 48 hours. After the incubation, the medium was removed from each well and cells fixed by addition of 10% (w/v) trichloroacetic acid (TCA) (4° C.). The cells were incubated at 4° C. for one hour and then washed five times with water to remove TCA. The TCA-fixed cells were then stained for 30 minutes with 0.4% (w/v) sulforhodamine B prepared in 1% acetic acid. Following the staining, the cell layers were washed four times with 1% acetic acid. The cell layer was dissolved in 10 mM unbuffered tris-hydroxymethylaminomethane base. Absorbance of the solution was determined at 564 nm. Antiproliferative activity is manifested as decreased production of cellular protein.
# [19] = tested on: LoVo human adenocarcinoma cells; test: Cell proliferation assay (cell counts), LoVo; assay type: cell-based; conditions: 72 h
# Description: as §1, §2
# Cultures were exposed to graded concentrations of tolytoxin and reincubated for 72 hours in the presence of tolytoxin. Three dishes were used for each treatment. Cell numbers were determined by hemacytometer counts. The IC50 for each cell line was determined by plotting the logarithm of the tolytoxin concentration versus growth (cell number as a percentage of the control) of the treated cells.
# The other new scytophycin compounds are also potent cytotoxins. For example, the IC50 of the scytophycins against KB human epidermoid carcinoma, LoVo human adenocarcinoma, and L1210 murine leukemia were determined using the cell proliferation assay described for tolytoxin.
# [20] = tested on: COLO-201 human colon adenocarcinoma cells; test: Cell proliferation assay (cell counts), COLO-201; assay type: cell-based; conditions: Table 5, 72 hours
# Description: as §1, §2, §3
# [21] = tested on: T47-D human ductal carcinoma cells; test: Cell proliferation assay (cell counts), T47-D; assay type: cell-based; conditions: T47D, Table 5, 72 hours
# Description: as §1, §2, §3
smiles,measurement,setting,value
"COC1CC2C=CCC(CC(OC)C3(CO3)C(OC)CC(OC)C(C)C(C(C)C(O)C(C)CCC(=O)C(C)C(OC)C(C)/C=C/N(C)C=O)OC(=O)/C=C/C(C)=C/C1O)O2 (stereo not shown) [Tolytoxin, 6-hydroxy-7-O-methylscytophycin B]",IC50,[1],2.3 nM
same,MIC,[2],8 nM
same,MIC,[3],4 nM
same,MIC,[4],1 nM
same,MIC,[5],1 nM
same,MIC,[6],4 nM
same,MIC,[7],0.5 nM
same,MIC,[8],4 nM
same,MIC,[9],2 nM
same,MIC,[10],2 nM
same,MIC,[11],0.5 nM
same,MIC,[12],0.25 nM
same,MIC,[13],8 nM
same,MIC,[14],4 nM
same,MIC,[15],0.25 nM
same,LD50,[16],~1.5 mg/kg
same,IC50,"[17]; Homo sapiens, SKVLB, 48 h, read-out: IC50 SKVLB",25 nM
same,Fold-Resistance,"[17]; Table 7, SKVLB vs SKOV3, 2880 min",1
same,IC50,[18],25 nM
same,IC50,[19],8.4 nM
same,IC50,[20],0.52 nM
same,IC50,[21],4.9 nM
